Here are results for 2 compounds from patent US20030036082A1, “Screening methods” (priority 2001, published 2003).

Assay [1] has as its system epitrochlearis muscle from Wistar rats. Briefly: 3-O-methyl-glucose transport in isolated epitrochlearis muscle. The class given is cell-based. The following applies: 25 μM inhibitor, Wistar rat epitrochlearis muscle. On the procedure: The influence of total DGK activity on insulin-stimulated glucose uptake was assessed by measurements on epitrochlearis muscle from Wistar rats using a specific inhibitor for diacylglycerol kinase, DGK inhibitor II™ (Jang, Y. et al. (2000) Biochem. Pharmacol. 59: 763-772).
Media were prepared from a pre-gassed (95% O2/5% CO2) Krebs Henseleit buffer (KHB) containing 5 mM glucose and 0.1% BSA (RIA grade). Epitrochlearis muscles were incubated (20 min) in a shaking water bath (30° C.) in 2 ml of KHB, supplemented with 20 mM mannitol, with or without 2.4 nM insulin and 25 μM DGK-II inhibitor (Calbiochem). Muscles were transferred to KHB containing 8 mM 3-O-methyl[^3H]glucose (438 μCi/mmol; 1 Ci=[…]) and 12 mM [^14C]mannitol (42 μCi/mmol) and incubated (10 min) with or without insulin and 25 μM of DGKII inhibitor. 3-O-methyl-glucose transport activity was assessed as described (Wallberg-Henriksson et al. (1987) J. Biol. Chem. 262: 7665-7671) and expressed as micromoles per milliliter of intracellular water per hour.

The test system of assay [2] is total DGK activity. Briefly: Reduction of total DGK activity by DGK inhibitor (data not shown). The class given is biochemical.
For assay [3], the system named is DGKδ. Briefly: DGKδ protein expression in gastrocnemius skeletal muscle by immunoblotting after phlorizin treatment. The class given is in vivo. The note with it: GK rats, phlorizin 0.8 g/kg body wt per day s.c. for 4 weeks. On the procedure:
(§1) In order to investigate the influence of DGKδ on insulin-stimulated glucose uptake in more detail, DGKδ expression studies and measurements of DGK activity were performed in GK rats, a lean animal model for type 2 diabetes (Goto et al., pp. 301-303 in: Frontiers in Diabetes Research (Shafrir E., Renold, A E, Eds.) London, John Libbey, 1988). Male GK rats (200-250 g) were obtained from the Karolinska Institute, Sweden. Weight-matched male Wistar rats served as controls (B&K Universal, Sollentuna, Sweden). All rats were maintained under a 12-hour light/dark cycle, and had free access to water and standard rodent diet. Four groups of animals were studied: vehicle-treated Wistar rats (n=5), phlorizin-treated Wistar rats (n=6), vehicle-treated GK-rats (n=6) and phlorizin-treated GK-rats (n=6). […]
Portions of the gastrocnemius skeletal muscle (approximately 30 mg) were crushed in liquid N2 and then lysed in ice-cold buffer (137 mM NaCl, 2.7 mM KCl, 1 mM MgCl2, 0.5 mM Na3VO4, 1% Triton X-100, 10% glycerol, 20 mM Tris pH 8.0, […] leupeptin, 0.2 mM PMSF, 10 mM NaF, 10 μg/ml aprotinin). […] The supernatant was removed and protein concentration was determined. […] Proteins were visualized by ECL and quantified by densitometric scanning.

For assay [4] the following is noted: diabetic GK rats, treatment with phlorizin; cited from earlier work.
Assay [5] concerns total DGK activity. Briefly: Octyl glucoside/PS mixed-micelle assay of total DGK activity in gastrocnemius muscle after phlorizin treatment. The class given is in vivo. The note with it: GK rats, phlorizin 0.8 g/kg body wt per day s.c. for 4 weeks. As for the experimental part: as §1, with “diet.” for “diet. Four groups of animals were studied: vehicle-treated Wistar rats (n=5), phlorizin-treated Wistar rats (n=6), vehicle-treated GK-rats (n=6) and phlorizin-treated GK-rats (n=6).”
Portions of the gastrocnemius skeletal muscle (approximately 30 mg) were crushed in liquid nitrogen, homogenized by sonication in ice-cold buffer containing 20 mM Tris-HCl, pH 7.5, 250 mM sucrose, 1 mM EDTA, 1 mM EGTA, 1 mM dithiothreitol (DTT), 1 mM PMSF, a 20 μg/ml concentration of each: leupeptin, pepstatin, aprotinin, and soybean trypsin inhibitor and centrifuged at 12,000×g for 10 min at 4° C. The supernatant was collected and protein concentration was determined.
An octyl glucoside/PS mixed-micelle assay of total DGK activity was performed using [γ-^32P] […] The region containing phosphatidic acid was quantified by phosphoimaging and densitometry.

Molecules are shown by their SMILES.

As to `O=c1c2ccccc2[nH]c(=S)n1CCN1CCC(=C(c2ccc(F)cc2)c2ccc(F)cc2)CC1` [DGK inhibitor II™], the “decrease of insulin-stimulated glucose transport” value in assay [1] (2.4 nM insulin) is “approximately 30%”. In addition, the basal glucose transport result in assay [1] (without insulin) is listed as “not affected”. Also, in assay [2], the “reduction of total DGK activity” value is given as 70%.

As for `O=C(CCc1ccc(O)cc1)c1c(O)cc(O)cc1O[C@@H]1O[C@H](CO)[C@@H](O)[C@H](O)[C@H]1O` [phlorizin, Phlorizin], the “DGK content in the muscle (DGKδ protein level, immunoblot densitometry)” value in assay [3] is reported as “increase of DGK content in the muscle to approximately the same values as measured in healthy Wistar rats”. The blood glucose levels result in assay [4] is listed as “brings glucose levels back to normal values”. In assay [5], the “total DGK activity in muscle” value is “increase of total DGK activity in GK rat muscle upon phlorizin treatment to a level measured in muscle from healthy Wistar rats”.
